According to patent US6844347B1, “Substituted 4-amino-2aryl-pyrimidines, their production and use and pharmaceutical preparations containing same” (Aventis Pharma Deutschland GmbH, priority 1998, dated 2005):

Tested on: not given
Assay: not given
Conditions: not given

| melting point [°C] | Structure (SMILES) |
| --- | --- |
| 152 | Cc1ccc(-c2nc(C(C)C)cc(N3CC[S+]([O-])CC3)n2)cc1 [Example 148, 6-Isopropyl-2-(4-methylphenyl)-4-(1-oxothiomorpholino)pyrimidine] |
| 226 | CC(C)c1cc(N2CCS(=O)(=O)CC2)nc(-c2ccc(Cl)cc2)n1 [Example 145, 2-(4-Chlorophenyl)-6-isopropyl-4-(1,1-dioxothiomorpholino)pyrimidine] |
| 103 | CC[S+]([O-])CCNc1cc(C(C)C)nc(-c2ccc(Cl)cc2)n1 (stereo not drawn) [Example 147, 2-(4-Chlorophenyl)-4-((2-ethylsulfinylethyl)amino)-6-isopropylpyrimidine] |
| 187 | CC(C)c1cc(N2CC[S+]([O-])CC2)nc(-c2cc(Cl)cc(Cl)c2)n1 [Example 149, 2-(3,5-dichlorophenyl)-6-isopropyl-4-(1-oxothiomorpholino)pyrimidine] |
| 128 | CC(C)c1cc([SH]2(=O)CCNC2)nc(-c2ccc(Cl)cc2)n1 [Example 146, 2-(4-Chlorophenyl)6-isopropyl-4-(1-oxo-1,3-thiazolidin-1-yl)pyrimidine] |

Target: T1, soluble guanylate cyclase (sGC) (Bos taurus, UniProt P16068+P19687)
T1 construct: The sGC employed had been isolated from bovine lung; from tissue; host or cells: bovine lung
T1 sequence (P19687 1-691): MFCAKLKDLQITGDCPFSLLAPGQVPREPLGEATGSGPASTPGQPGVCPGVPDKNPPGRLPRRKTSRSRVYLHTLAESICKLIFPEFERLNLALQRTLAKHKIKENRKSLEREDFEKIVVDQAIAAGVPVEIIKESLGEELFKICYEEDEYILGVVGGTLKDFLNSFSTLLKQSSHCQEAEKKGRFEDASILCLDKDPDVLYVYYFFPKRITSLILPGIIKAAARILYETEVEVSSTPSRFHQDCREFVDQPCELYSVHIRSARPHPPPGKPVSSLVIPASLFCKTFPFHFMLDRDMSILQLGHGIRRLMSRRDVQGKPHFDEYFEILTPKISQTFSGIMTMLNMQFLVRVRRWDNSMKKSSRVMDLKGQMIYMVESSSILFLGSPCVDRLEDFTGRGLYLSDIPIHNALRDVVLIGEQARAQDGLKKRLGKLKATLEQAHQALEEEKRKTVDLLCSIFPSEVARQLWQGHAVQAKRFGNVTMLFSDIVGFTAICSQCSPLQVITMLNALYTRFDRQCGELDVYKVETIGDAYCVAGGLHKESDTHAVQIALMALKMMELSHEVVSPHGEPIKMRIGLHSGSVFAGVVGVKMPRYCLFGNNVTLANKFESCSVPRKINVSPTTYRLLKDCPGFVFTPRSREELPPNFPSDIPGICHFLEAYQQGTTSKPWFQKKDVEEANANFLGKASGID
T1 sequence (P16068 1-619): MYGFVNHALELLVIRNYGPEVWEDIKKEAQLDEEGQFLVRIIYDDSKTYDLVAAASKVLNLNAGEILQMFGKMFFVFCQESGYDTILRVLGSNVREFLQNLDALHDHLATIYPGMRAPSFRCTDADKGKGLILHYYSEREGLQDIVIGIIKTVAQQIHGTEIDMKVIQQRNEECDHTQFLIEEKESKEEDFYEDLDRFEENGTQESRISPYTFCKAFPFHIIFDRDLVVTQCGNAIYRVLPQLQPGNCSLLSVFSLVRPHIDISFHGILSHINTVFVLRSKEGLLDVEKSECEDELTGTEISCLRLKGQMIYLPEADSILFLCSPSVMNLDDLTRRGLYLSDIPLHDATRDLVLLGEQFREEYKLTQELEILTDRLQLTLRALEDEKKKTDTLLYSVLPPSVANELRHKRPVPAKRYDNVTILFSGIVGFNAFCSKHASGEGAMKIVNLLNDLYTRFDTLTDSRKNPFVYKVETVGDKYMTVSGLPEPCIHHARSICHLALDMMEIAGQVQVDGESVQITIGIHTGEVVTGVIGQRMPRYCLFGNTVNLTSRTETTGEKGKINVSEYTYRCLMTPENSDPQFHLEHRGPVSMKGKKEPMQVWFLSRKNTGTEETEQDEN
Assay: Activation of soluble guanylate cyclase (cGMP enzyme immunoassay)
Format: biochemical
Conditions: test substance 50 μM; sGC isolated from bovine lung; [cGMP]test substance/[cGMP]control (basal activity with solvent); 37° C., 15 to 20 minutes
Procedure: The activation of soluble guanylate cyclase (sGC), which catalyzes the conversion of guanosine triphosphate (GTP) to cyclic guanosine monophosphate (cGMP) and pyrophosphate, by the compounds according to the invention was quantified with the aid of an enzyme immunoassay (EIA) from Amersham. For this, the test substances were first incubated with sGC in microtiter plates and then the quantity of the resulting cGMP was determined.
The sGC employed had been isolated from bovine lung (see Methods in Enzymology, Volume 195, p. 377). The test solutions (100 μl per well) contained 50 mM triethanolamine (TEA) buffer (pH 7.5), 3 mM MgCl2, 3 mM reduced glutathione (GSH), 0.1 mM GTP, 1 mM 3-isobutyl-1-methylxanthine (IBMX), suitably diluted enzyme solution and the test substance or, in the control experiments, solvent. The test substances were dissolved in dimethyl sulfoxide (DMSO) and the solution was diluted with DMSO/water such that the final concentration c of test substance in the test batch was 50 μM. The DMSO concentration in the test batch was 5% (v/v). The reaction was started by addition of the sGC. The reaction mix was incubated at 37° C. for 15 to 20 minutes and then stopped by ice-cooling and addition of the stop reagent (50 mM EDTA, pH 8.0). An aliquot of 50 μl was taken and employed for the determination of the cGMP content using the acetylation protocol of the Amersham cGMP EIA kit. The absorption of the samples was measured at 450 nm (reference wavelength 620 nm) in a microtiter plate reading apparatus. The cGMP concentration was determined by means of a calibration curve, which was obtained under the same experimental conditions. The activation of the sGC by a test substance is indicated as n-fold stimulation of the basal enzyme activity which was found in the control experiments (with solvent instead of test substance) (calculated according to the formula n-fold stimulation=[cGMP]test substance/[cGMP]control).

| Structure (SMILES) | n-fold stimulation at c = 50 μM [n-fold] |
| --- | --- |
| CC(C)c1cc(N2CCSC2)nc(-c2ccc(Cl)cc2)n1 [Example 45] | >4 |
| CCCCN(CCCC)c1cc(C(C)C)nc(-c2ccc(Cl)cc2)n1.Cl [Example 34] | >4 |
| CC(C)(C)c1cc(N2CCOCC2)nc(-c2ccc(Cl)cc2)n1 [Example 52] | >8 |
| CC(C)c1cc(N2CCCCCC2)nc(-c2ccc(Cl)cc2)n1 [Example 38] | >8 |
| CC(C)c1cc(N2CCCC2)nc(-c2ccc(Cl)cc2)n1.Cl [Example 29] | >4 |
| CCN(CC)c1cc(-c2ccccc2)nc(-c2ccc(Cl)cc2)n1 [Example 63] | >4 |
| CC(C)c1cc(N2CCC(C(N)=O)CC2)nc(-c2ccc(Cl)cc2)n1 [Example 44] | >4 |
| CCCCNc1cc(C(C)C)nc(-c2ccc(Cl)cc2)n1 [Example 32] | >4 |
| CCCN(CCC)c1cc(-c2ccccc2)nc(-c2ccc(Cl)cc2)n1 [Example 69] | >4 |
| COCCCNc1cc(C(C)C)nc(-c2ccc(C)cc2)n1 [Example 23] | >8 |
| CCCN(CCC)c1cc(C(C)C)nc(-c2ccc(Cl)cc2)n1.Cl [Example 35] | >16 |
| Cc1ccc(-c2nc(NC3CCC(O)CC3)cc(C(C)C)n2)cc1 (stereo not drawn) [Example 25] | 28 |
| CC(C)c1cc(NC2CCC(O)CC2)nc(-c2cc(Cl)cc(Cl)c2)n1 (stereo not drawn) [Example 77] | 30 |
| CCCCNc1cc(C(C)C)nc(-c2cc(Cl)cc(Cl)c2)n1.Cl [Example 79] | >4 |
| CC(C)(C)c1cc(N2CCSCC2)nc(-c2ccc(Cl)cc2)n1 [Example 66] | >4 |
| CCN(CC)c1cc(C(C)C)nc(-c2ccc(Cl)cc2)n1 [Example 33] | >16 |
| C=CCN(CC=C)c1cc(C(C)C)nc(-c2ccc(Cl)cc2)n1 [Example 36] | >8 |
| CCN(Cc1ccccc1)c1cc(C(C)C)nc(-c2ccc(Cl)cc2)n1 [Example 43] | >4 |
| CC(C)c1cc(N2CCSCC2)nc(-c2ccc(Cl)cc2)n1.Cl [Example 30] | >4 |

Next, values leading:

| n-fold stimulation at c = 50 μM [n-fold] | Structure (SMILES) |
| --- | --- |
| >16 | CCN(CC)c1cc(C(C)C)nc(-c2ccc(C)cc2)n1.Cl [Example 86] |
| >16 | CCN(CC)c1cc(C(C)C)nc(-c2cc(Cl)cc(Cl)c2)n1 [Example 80] |
| 32 | CC(C)c1cc(N[C@H]2CC[C@H](O)CC2)nc(-c2ccc(Cl)cc2)n1 [Example 125] |
| >8 | COCCN(CCOC)c1cc(C(C)C)nc(-c2ccc(C)cc2)n1 [Example 98] |
| >16 | Cc1ccc(-c2nc(C(C)C)cc(N3C[C@@H](C)O[C@@H](C)C3)n2)cc1 [Example 97] |
| >8 | Cc1ccc(-c2nc(C(C)C)cc(N3CCCCCC3)n2)cc1 [Example 100] |
| >4 | CC(C)c1cc(N2CCOCC2)nc(-c2cc(Cl)cc(Cl)c2)n1 [Example 81] |
| >8 | CCCCNc1cc(C(C)C)nc(-c2ccc(C)cc2)n1 [Example 88] |
| >8 | Clc1ccc(-c2nc(-c3ccccc3)cc(N3CCCCCC3)n2)cc1 [Example 112] |
| >8 | Cc1ccc(-c2nc(C(C)C)cc(N3CCOCC3)n2)cc1 [Example 89] |
| >16 | Cc1ccc(-c2nc(C(C)C)cc(N3CCSCC3)n2)cc1 [Example 90] |
| >4 | Cc1ccc(-c2nc(C(C)C)cc(N3CCC(C(N)=O)CC3)n2)cc1 [Example 99] |
| >16 | CC(C)c1cc(NC2CCCC2)nc(-c2ccc(Cl)cc2)n1 [Example 124] |
| >16 | CCCN(CCC)c1cc(C(C)C)nc(-c2ccc(C)cc2)n1 [Example 85] |
| >16 | CC(C)(C)c1cc(N[C@H]2CC[C@H](O)CC2)nc(-c2ccc(Cl)cc2)n1 [Example 133] |
| >16 | CC(C)c1cc(NCCCCO)nc(-c2ccc(Cl)cc2)n1 [Example 137] |
| >4 | CC(C)c1cc(N2CCSCC2)nc(-c2cc(Cl)cc(Cl)c2)n1 [Example 82] |
| >16 | CCCN(CCC)c1cc(C(C)C)nc(-c2cc(Cl)cc(Cl)c2)n1 [Example 84] |
